Measured values published in patent US20160115540A1, “PRODRUGS AND DRUGS” (Biogen MA Inc., priority 2013, published 2016).
Counter-ions that a name gives are not always drawn.

Test system: kidney
Experiment: Transcriptional profiling on Affymetrix GeneChips, single dose, naïve mice: kidney
Type: in vivo, C57BL/6 mice
Conditions: 100 DMF-vs-Veh, 2 h
Method: Treated mice were sacrificed at 2, 7, or 12 hours. Tissues (liver, spleen, kidney, jejunum, cortex, hippocampus, striatum and whole blood) were collected and analyzed by transcriptional profiling on mouse Affymetrix GeneChips.
Tissues (liver, spleen, kidney, jejunum, cortex, hippocampus, striatum and whole blood) were collected and analyzed by transcriptional profiling on mouse Affymetrix GeneChips.
Animals were exposed to CO2 and whole blood collected via cardiac puncture. Two 100 μl aliquots of whole blood were collected in 1.5 mL microcentrifuge tubes and snap frozen in liquid nitrogen. Peripheral (liver, spleen, kidney and jejunum) and CNS brain (cerebellum, hippocampus, striatum and cortex) tissues were harvested and snap frozen in liquid nitrogen, with special care taken to collect tissues of similar size and from the same location. All samples were stored at −80° C. until RNA extraction was conducted.
For RNA preparation, frozen tissues were placed in 2 mL RNAse-free 96-well blocks with 1.5 mL QIAzol Lysis Reagent (QIAgen) and a 3.2 mm stainless steel bead (BioSpec Products, Bartlesville, Okla.). Tissues were disrupted for four cycles of 45 seconds in a Mini-Beadbeater (Biospec Products). RNA was extracted in chloroform and the aqueous phase was mixed with an equal volume of 70% ethanol. Extracted RNA was applied to RNeasy 96 plates and purified by the spin method according to the manufacturer's protocol (RNeasy 96 Universal Tissue Protocol, QIAgen, Hilden Germany).
Automated sample amplifications and biotin labelings were carried out using the NuGEN Ovation RNA Amplification system V2 (Cat #3100), Ovation WB reagent (Cat #1300) and Encore Biotin module (Cat #4200) (NuGEN Technologies, Inc, San Carlos, Calif.) according to manufacturer's recommendations using an Arrayplex automated liquid handler (Beckman Coulter, Indianapolis, Ind.). Two micrograms of biotin labeled sscDNA probe were hybridized to Affymetrix GeneChip Affymetrix HT_MG-430_PM plate arrays with modified conditions as described in Allaire et al. Washing and staining of the hybridized arrays were completed as described in the GeneChip Expression analysis technical manual for HT plate arrays using the Genechip® Array Station (Affymetrix, Santa Clara, Calif.) with modifications as described in Allaire et al. The processed GeneChip® plate arrays were scanned using GeneTitan scanner (Affymetrix, Santa Clara, Calif.).
Affymetrix scans were subject to quality control (QC) measures. These tests included a visual inspection of the distribution of raw signal intensities and an assessment of RNA degradation, relative log expression (RLE), and normalized unsealed standard error (NUSE). All sample scans that passed these QC metrics were included in the analysis.
All CEL files were subjected to GC-content-based Robust Multi-array Average (GCRMA) normalization (version 2.20.0) (Irizarry R A, et al. Nucleic Acids Res 2003; 31:e15; Li C, et al. Genome Biol 2001; 2:[…]0032). Expression levels were log (base 2) transformed.
All calculations and analyses were carried out using R (version 2.11.1) and Bioconductor computational tools (Gentleman R. Springer Science+Business Media 2005).

SMILES: COC(=O)/C=C/C(=O)OC [DMF, dimethyl fumarate]
- FC 1200016B10Rik 1428654_PM_at: 1.59
- FC 1200016B10Rik 1452859_PM_at: 1.62
- FC 1438879_PM_at: −1.61
- FC 1439292_PM_at: 2.14
- FC 1440076_PM_at: 3.71
- FC 1440084_PM_at: −1.57
- FC 1440304_PM_at: −1.68
- FC 1440457_PM_at: 1.76
- FC 1440660_PM_at: −1.56
- FC 1441155_PM_at: 1.51
- FC 1441360_PM_at: 1.55
- FC 1441413_PM_at: 1.88
- FC 1441455_PM_at: 1.58
- FC 1441482_PM_at: −2.08
- FC 1441484_PM_at: −1.79
- FC 1441518_PM_at: −1.67
- FC 1441794_PM_at: −1.72
- FC 1442422_PM_at: 1.74
- FC 1442483_PM_at: −1.59
- FC 1442504_PM_at: −1.70
- FC 1442506_PM_at: 5.76
- FC 1442671_PM_at: 1.55
- FC 1442725_PM_at: −1.53
- FC 1442928_PM_at: 1.66
- FC 1443100_PM_at: −1.63
- FC 1443109_PM_at: 1.69
- FC 1443289_PM_at: −1.65
- FC 1443335_PM_at: −1.78
- FC 1443546_PM_at: 1.74
- FC 1443566_PM_at: −1.76
- FC 1443673_PM_x_at: 2.06
- FC 1444021_PM_at: 3.24
- FC 1444057_PM_at: 1.75
- FC 1444111_PM_at: −1.67
- FC 1444212_PM_at: 1.57
- FC 1444227_PM_at: 1.56
- FC 1444265_PM_at: 1.93
- FC 1445290_PM_at: −1.52
- FC 1445349_PM_at: −1.70
- FC 1445600_PM_at: −1.65
- FC 1445664_PM_at: −1.60
- FC 1446075_PM_at: −1.62
- FC 1446172_PM_at: 1.85
- FC 1446621_PM_at: 1.74
- FC 1446921_PM_at: 1.58
- FC 1447172_PM_at: −1.61
- FC 1447396_PM_at: −1.90
- FC 1447411_PM_at: 4.68
- FC 1700012D14Rik 1438880_PM_at: −1.55
- FC 1810013L24Rik 1431018_PM_at: 1.50
- FC 2200002K05Rik 1428400_PM_at: −1.79
- FC 2210403K04Rik 1428562_PM_at: 1.86
- FC 2210416J07Rik 1432665_PM_at: −1.87
- FC 2410089E03Rik 1443422_PM_at: −1.72
- FC 2810029C07Rik 1428686_PM_at: −1.58
- FC 2900011L18Rik 1432757_PM_at: 1.62
- FC 4833418N02Rik 1430686_PM_at: −1.51
- FC 4921509J17Rik 1430244_PM_at: 1.60
- FC 4932416J16Rik 1430783_PM_at: −1.67
- FC 4933427G17Rik 1431905_PM_s_at: −1.65
- FC 5830487K18Rik 1432625_PM_at: −1.90
- FC 6430571L13Rik 1439669_PM_at: −1.85
- FC 9130221J17Rik (1443159_PM_at): 9.22
- FC 9530086O07Rik 1430392_PM_at: −1.52
- FC A130012E19Rik 1440671_PM_at: 1.56
- FC AI845619 1442726_PM_s_at: 5.44
- FC Aars 1451083_PM_s_at: 1.53
- FC Abce1 1442071_PM_at: 1.53
- FC Acvr2b 1419140_PM_at: −1.51
- FC Adamts1 1450716_PM_at: 1.86
- FC Adamts15 1427056_PM_at: −2.26
- FC Ahsa2 1435160_PM_at: 1.64
- FC Aldh2 1437410_PM_at: 1.69
- FC Alkbh1 1434660_PM_at: 1.53
- FC Anxa7 1438764_PM_at: 1.88
- FC Aox1 (1419435_PM_at): 2.46
- FC Arl5b 1437884_PM_at: 1.93
- FC Arpc5l 1441190_PM_at: 1.70
- FC Asns 1433966_PM_x_at: 2.54
- FC Asns 1451095_PM_at: 3.03
- FC Atf4 1438992_PM_x_at: 1.77
- FC Atf4 1448135_PM_at: 2.12
- FC Atp1a2 1452308_PM_a_at: 1.84
- FC BC005512 /// F630007L15Rik /// Gm6958 1426936_PM_at: −1.67
- FC BC005512 /// F630007L15Rik /// Gm6958 1435628_PM_x_at: −1.72
- FC BC026585 1445857_PM_at: −1.51
- FC BC031353 1439293_PM_at: −1.84
- FC Bach1 1440831_PM_at: 1.90
- FC Bach1 1449311_PM_at: 2.55
- FC Bag3 1422452_PM_at: 2.03
- FC Baiap2 1425656_PM_a_at: 1.51
- FC Baz1a 1433599_PM_at: 2.51
- FC Baz1a /// LOC100505185 1447930_PM_at: 2.56
- FC Bcl11b 1438784_PM_at: −1.52
- FC Brd2 1423502_PM_at: 1.83
- FC Brd2 1437210_PM_a_at: 2.07
- FC Btbd10 1438578_PM_a_at: 1.60
- FC C730027H18Rik 1442546_PM_at: −1.57
- FC Cars 1452394_PM_at: 1.63
- FC Cbr3 (1427912_PM_at): 3.04
- FC Ccdc30 1430593_PM_at: −2.01
- FC Ccdc117 1452218_PM_at: 1.54
- FC Cenpe 1435005_PM_at: −2.20
- FC Chac1 1451382_PM_at: 31.00
- FC Chd1 1420990_PM_at: 1.76
- FC Chd1 1450077_PM_at: 1.67
- FC Cltc 1439094_PM_at: 2.07
- FC Cyp27b1 1427372_PM_at: −3.22
- FC Cyr61 1438133_PM_a_at: 2.64
- FC D16Ertd778e 1445089_PM_at: −2.60
- FC Dcbld1 1418966_PM_a_at: 1.78
- FC Ddit3 1443897_PM_at: 3.97
- FC Dnaja4 1434196_PM_at: 1.63
- FC Dnajb4 1431734_PM_a_at: 2.15
- FC Dnajb4 1451177_PM_at: 2.48
- FC Dusp4 1428834_PM_at: 2.09
- FC Dusp5 1437199_PM_at: 3.68
- FC E130306D19Rik 1436725_PM_at: −1.64
- FC Eid3 1429350_PM_at: 1.84
- FC Eif2c3 1435904_PM_at: 1.53
- FC Esd (1441604_PM_at): 1.62
- FC Fam126a 1450724_PM_at: 1.70
- FC Fbxo30 1436550_PM_at: 1.81
- FC Fgd3 1433398_PM_at: 1.66
- FC Fgf1 1441042_PM_at: −2.91
- FC Fgfbp1 1419086_PM_at: 1.81
- FC Fn3k 1442436_PM_at: −1.60
- FC Fras1 1440765_PM_at: −1.73
- FC Gadd45a 1449519_PM_at: 1.75
- FC Gclc (1424296_PM_at): 1.70
- FC Gdap10 1420342_PM_at: 1.52
- FC Gdf15 1418949_PM_at: 5.39
- FC Gm10374 1436357_PM_at: −1.52
- FC Gm10804 1441759_PM_at: −1.67
- FC Gsta3 (1423437_PM_at): 2.01
- FC Gt(ROSA)26Sor 1452239_PM_at: 1.62
- FC Hectd2 1433944_PM_at: 1.67
- FC Hinfp 1440255_PM_at: 1.57
- FC Hk2 1422612_PM_at: 2.72
- FC Hmox1 1448239_PM_at: 6.27
- FC Hnf1b 1421224_PM_a_at: −1.77
- FC Hnf1b 1451687_PM_a_at: −1.82
- FC Hsp90aa1 1426645_PM_at: 1.64
- FC Hsp90aa1 1437497_PM_a_at: 1.55
- FC Hspa1a 1452388_PM_at: 2.35
- FC Hspa1b 1427126_PM_at: 3.65
- FC Hspa1b 1427127_PM_x_at: 3.37
- FC Hspa1b 1452318_PM_a_at: 1.70
- FC Hspa4l 1439093_PM_at: 1.67
- FC Hspa8 /// LOC624853 1431182_PM_at: 2.63
- FC Hsph1 1423566_PM_a_at: 2.40
- FC Igf1r 1446303_PM_at: −1.66
- FC Jmjd6 1420056_PM_s_at: 1.52
- FC Jmjd6 1420057_PM_at: 1.54
- FC Jun 1448694_PM_at: 1.50
